These results are taken from patent US10653680B2, “Treatment of impulsivity-related disorders” (OXFORD UNIVERSITY INNOVATION LIMITED, priority 2016, dated 2020).

The test system of one series is healthy participants. The series can be described thus: Human study: subjective ratings (PANAS mood, side effect profile, LSEQ sleep, guess of treatment arm). The format is in vivo. The source says: Twenty healthy participants (7 females, 13 males; mean age 25.1 years, range 20-38 years; mean BMI 22.7 kg/m^2, range 18.7-30.0 kg/m^2) were included in the study after giving full informed written consent.
Exclusion criteria included a history of any DSM-5 Axis I psychiatric disorder (determined using the […] for Diagnostic and Statistical Manual for Mental Health Disorders), significant current medical condition, current regular medication (apart from the contraceptive pill), pregnancy or lactation, heavy smoking (defined as more than 5 cigarettes per day) and having taken part in another study involving an investigational drug within the previous 3 months. Participants were asked to maintain stable exercise and diet as well as refrain from alcohol during study participation.
Ebselen capsules and identical matching placebo (containing microcrystalline cellulose) were purchased from Shasun Pharmaceuticals Ltd. Participants were tested twice (seven days apart) receiving on one occasion ebselen and, on the other, placebo in a randomised, double-blind, cross-over design. Ebselen was administered in 6×200 mg capsules in three doses given over two days. The order of receiving either the ebselen or the placebo was randomised.
On the day before cognitive testing, participants took the first dose at 1 pm and the second dose at 10 pm. The final dose was taken around 3 hrs prior to cognitive testing. Participants were sent text message reminders a few minutes before they were due to take medication, and were asked to confirm receipt of the messages. The cognitive tasks were carried out immediately after a magnetic resonance spectroscopy study.
On the screening visit, participants were assessed for baseline depression and anxiety symptoms with the Beck Depression Inventory (Beck et al.; Arch. Gen. Psychiatry; 1961, 4: 561-571) and the state measure of the State-Trait Anxiety Inventory (STAI) (Spielberger et al.; Manual for the State-Trait Anxiety Inventory, Consulting Psychologists Press, Palo Alto Calif., 1983), and for personality with the Eysenck Personality Questionnaire (Eysenck and Eysenck, Manual of the Eysenck Personality Questionnaire, London: Hodder & Stoughton, 1975). On the morning preceding psychological testing, the Leeds Sleep Evaluation Questionnaire (LSEQ) was completed within 30 minutes of waking (Parrot and Hindmarch, Psychopharmacology, 1980, 71, 173-179).
Before cognitive testing, participants were asked to rate their mood using the Positive and Negative Affective Schedule (PANAS) (Watson et al.; J. Pers. Soc. Psychol., 1988, 54, 1063-1070), to complete a side effect profile using a 4-point rating scale and also to guess as to whether they had received ebselen or placebo on that randomization arm. […]

The test system of series [1] is rats. Put plainly: 5 Choice Serial Reaction Time Task (5-CSRTT). In kind it is in vivo, rats (males; Long Evans). Here is the method: (§1) Testing was carried out in Vancouver (Canada) using rats (males; Long Evans from Charles River) which were given at least two weeks to acclimatise to the animal facility. They were housed in pairs on a 12 hour reverse light-dark cycle (lights off at 7 am). In the second week of acclimatisation, rats were handled briefly each day. […] For each task, there was then a habituation session to the operant boxes before training began.
(§2) Ebselen, cocaine and 2,5-dimethoxy-4-iodoamphetamine (DOI) were obtained from Sigma Aldrich, and MDL 100,907 was obtained from Tocris. Ebselen was dissolved in 0.5M DMSO and made up to injection volume (8 ml/kg) using 4% cyclodextrin. Cocaine and DOI were dissolved in 0.9% saline. MDL 100,907 was dissolved in 0.9% saline and the pH was adjusted to 6.25 using 1M NaOH and 0.1M HCl.
(§3) All data for the cognitive tasks are presented as mean+SEM change from baseline: • performance on drug day−performance on the previous day
The data were analysed with repeated measures ANOVA with dose as a within-subject factor. Where appropriate, post-hoc analysis was performed using Student's paired t-test.
This test was performed as described previously (Bari et al., Nature Protocols, 2008, 3(5), 759-767; Robbins, Psychopharmacology, 2002, 163(3), 362-380).
Fourteen rats were trained to respond to brief visual cues presented in one of five target areas with an inter-trial interval of 5 seconds. On the day of testing in the presence of ebselen, the inter-trial interval was lengthened to 7 seconds to cause a reliable increase in premature responding.
Ebselen and vehicle were administered by intraperitoneal (i.p.) injection 1 hour prior to testing. Three doses of ebselen (2, 5 or 10 mg/kg) were studied, administration being in a random order that was determined by a Latin square design. Rats were run five days a week, with the treatment day falling on day three.
Following ebselen, 3 doses of MDL 100,907 (0.01, 0.03 and 0.1 mg/kg, i.p.) were tested in a Latin square design with the first injection occurring one week after the final injection of ebselen. MDL 100,907 is a selective 5-HT2A antagonist. Rats were similarly run five days a week with injections falling on the third day, and the lengthened inter-trial interval was used only on the drug-administration day.
The Latin square design (for both the 5-CSRTT and rGT experiments) was counterbalanced, based on performance in the last training day of each task. A one week wash-out period was given between drug-administration days. A baseline session was performed both the day before and the day after treatment to ensure stable off-drug performance.

The test system of series [2] is rats. The series can be described thus: 5-CSRTT, stimulant (cocaine)-induced responding. The format is in vivo, rats (males; Long Evans). Here is the method: as §1, §2, §3
In experiments investigating the effect of ebselen on cocaine and DOI, data were analysed with a two-way ANOVA with ebselen and cocaine/DOI as between-subject factors. If an interaction was detected, this was further investigated using simple main effects analysis. All analyses were conducted using SPSS 22 with p<0.05 considered significant.
To assess the effect of ebselen on stimulant-induced responding, ebselen (10 mg/kg) or vehicle was administered 1 hour prior to cocaine (15 mg/kg i.p.), which in turn was administered 10 minutes prior to testing. Treatments were administered using according to a Latin square design. The inter-trial interval for these sessions was 5 seconds. Two rats were excluded from the data due to increasing levels of omissions across all days of this portion of the study. The experiment was repeated using 0.03 mg/kg MDL 100,907 instead of ebselen.

The test system of series [3] is rats. The settings on record: in rats; cited from earlier work.
For series [4] the following is noted: WO 2012/107735; cited from earlier work.
A further series relates to humans. Particulars: at pharmaceutically effective dosages; clinical trials for ischemic stroke (Yamaguchi et al); cited from earlier work.

SMILES strings stand for the structures.

Consider `O=c1c2ccccc2[se]n1-c1ccccc1` [Ebselen, 2-phenyl-1,2-benzisoselenazol-3(2H)-one], for which the tolerability result with healthy participants (20 healthy participants, 6x200 mg in three doses over two days, no participants dropped out) is “well tolerated”. In addition, in the series with healthy participants (ebselen and placebo treatment compared), the “frequency of other side effects” value is “low and comparable frequency of side effects”. For the same compound, the “subjective measures of sleep (LSEQ)” value in the series with healthy participants (ebselen vs placebo) is recorded as “no significant differences”. Moreover, in the series on healthy participants (of 20 participants on ebselen treatment, none on placebo), the “participants who reported feeling drowsy” value is given as “Five”. Further, the premature responding entry with rats [1] (ebselen 2 mg/kg i.p. vs vehicle, p=0.158) is reported as “No effect”; in the series with rats [1] (ebselen 5 mg/kg i.p. vs vehicle, p=0.011), “statistically significant decreases”; in the series with rats [1] (ebselen 10 mg/kg i.p. vs vehicle, p=0.032) it was “statistically significant decreases”; in the series with rats [1] (ebselen 2, 5, 10 mg/kg i.p. 1 hour prior to testing, vs vehicle, ANOVA p=0.049, inter-trial interval 7 s), “decreased premature responding in a dose-dependent manner”. Moreover, in the series with rats [1] (ebselen 2, 5, 10 mg/kg i.p., p=0.192-0.805), the “any other measures of the 5-CSRTT” value was “No effects”. In the series with rats [2] (ebselen 10 mg/kg / cocaine 15 mg/kg experiment), the any other measure result is reported as “No effects”. Also, the “reversal of the cocaine effect on omissions” value with rats [2] (ebselen 10 mg/kg before cocaine 15 mg/kg, p=0.463) is “not reversed”. Besides, the “reversal of the cocaine effect on accuracy” value in the series with rats [2] (ebselen 10 mg/kg before cocaine 15 mg/kg, p=0.969, interaction p=0.278) is listed as “not reversed”. In addition, the cocaine-induced premature responses result with rats [2] (ebselen 10 mg/kg i.p. 1 hour prior to cocaine 15 mg/kg i.p., p=0.023) is “reduced cocaine-induced premature responses”. Besides, the “number of premature responses, ebselen/cocaine vs vehicle/vehicle treatment” value in the series on rats [2] (ebselen 10 mg/kg, cocaine 15 mg/kg i.p., p=0.909) is listed as “did not differ”. For the same compound, the LD50 concentration result with rats [3] is on record as “greater than 1000 mg/kg”. Besides, in series [4], the “transfer across the blood/brain barrier” value was “capable of transferring across the blood/brain barrier”. In the series with humans, the toxicity in humans entry is “sufficiently non-toxic”.
